Results on one molecule are retold here after patent publication US9227995B2, “Peptides” (DRUG DISCOVERY LABORATORY AS, priority 2010, dated 2016).

Some results are limits rather than exact numbers.

The data set is described as follows: aqueous solubility of the peptide. Particulars: water; stated as significantly higher compared to acyclic 21. Format: physicochemical.

As usually defined, the solubility is the dissolved amount per volume that the medium holds. Read a low solubility as a poorly soluble substance. As to `COC(=O)C(C)(C)NC(=O)[C@@H]1COCc2cn(nn2)CCC[C@H](NC(=O)C(C)(C)NC(=O)C(C)(C)NC(=O)C(C)(C)NC(=O)OC(C)(C)C)C(=O)NC(C)(C)C(=O)NC(C)(C)C(=O)N1` [compound 23, Methyl 2-methyl-2-((5S,14S)-8,8,11,11-tetramethyl-5-(2,2,6,6,9,9,12,12-octamethyl-4,7,10-trioxo-3-oxa-5,8,11-triazamidecanamido)-6,9,12-trioxo-16-oxa-1,7,10,13,19,20-hexaazabicyclo[16.2.1]henicosa-18 (21),19-dienecarboxamido)propanoate], the solubility is above 1000 µM.
